Measured values from PubChem BioAssay (NCI).
Several values for one entry are separate records, joined by “and”; a condition that tells them apart may be missing. Equal values may be shown once.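 In this assay, cells in 96-well plates receive the compound at five concentrations for 48 hours. Endpoints are linearly interpolated between the surrounding concentrations. GI50 is the concentration that inhibits growth by half. Definition used: TGI = concentration required for complete inhibition of growth.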

Columns and labels:
Assay in all cases: NCI-60 cell line screen, 48 h
DLD-1 colon = tested on: DLD-1 colon
RXF-631 renal = tested on: RXF-631 renal
HOP-18 NSCLC = tested on: HOP-18 NSCLC
XF 498 CNS = tested on: XF 498 CNS
KM20L2 colon = tested on: KM20L2 colon
SNB-78 CNS = tested on: SNB-78 CNS

| SMILES | TGI (DLD-1 colon) [µM] | TGI (RXF-631 renal) [µM] | TGI (HOP-18 NSCLC) | TGI (XF 498 CNS) [µM] | TGI (KM20L2 colon) [µM] | TGI (SNB-78 CNS) [µM] | GI50 (KM20L2 colon) [µM] | GI50 (HOP-18 NSCLC) [µM] |
| --- | --- | --- | --- | --- | --- | --- | --- | --- |
| COc1cc(C2c3cc4c(cc3[C@@H](N(C)c3ccc(N(C)C)cc3)C3COC(=O)C23)OCO4)cc(OC)c1O (some centres not stated) | 37.5 | 40.7 | 26.2 µM | – | – | – | – | – |
| O=C(c1ccco1)N(C(=S)N1CCN(c2ccccn2)CC1)c1ccccc1 | > 100 | – | > 100 µM | > 100 | > 100 | > 100 | – | – |
| C=CCn1c(=N)/c(=C(\N)O)s/c1=C1/SC(=S)N(c2ccc(C)cc2)C1=O | – | – | > 100 µM | – | – | – | – | – |
| COC(=O)CC(C(C(C)=O)C(=O)OCc1ccccc1)N1C(=O)OC(c2ccccc2)C1c1ccccc1 (configuration not stated) | > 100 | > 100 | 51.1 µM and > 100 µM | > 100 | > 100 | – | > 100 | > 100 |
| O=C(O)c1ccc(Nc2nc3nn(Cc4ccccc4)cc3c(=O)s2)cc1 | > 100 | – | > 100 µM | – | > 100 | > 100 | – | – |
| CC[n+]1c(/C=C/c2ccc(N(CCCl)CCCl)cc2)ccc2cc(I)ccc21 | 6.14 | – | 8.54 µM | – | 1.88 | 36 | – | – |
| OC12c3ccccc3C1CCCCCC21OCCCO1 (configuration not stated) | > 100 | – | > 100 µM | – | > 100 | > 100 | – | – |
| CN1NC(c2ccccc2)=C(C#N)C(=O)CC1c1ccc(Br)cc1 (configuration not stated) | > 100 | – | > 100 µM | 78.2 | – | > 100 | – | – |
| COc1ccc(/C(Cl)=C(\C=O)c2ccc(Cl)cc2)cc1OC | > 100 | > 100 | > 100 µM | – | 31.9 | > 100 | – | – |
| COc1cc2c(c(OC)c1OC)-c1ccc(SC)c(=O)cc1C(CC(=O)Oc1cccc(F)c1)C2 (configuration not stated) | > 100 | 20.7 | > 100 µM | 36.8 | 0.225 | > 100 | – | – |
| Cc1ccc(C2C(Cl)C(=O)N2NC(=O)c2ccc(N)cc2)cc1 (configuration not stated) | 40.2 | – | – | 26.5 | 48.2 | 46.2 | – | – |
| OC12CCC3(O)c4ccccc4C3C1c1ccccc12 (configuration not stated) | – | – | > 100 µM | > 100 | > 100 | > 100 | – | – |
| CCn1c(CSc2nc(-c3ccccc3)c(-c3ccccc3)[nH]2)n[nH]c1=S | > 100 | – | – | > 100 | > 100 | > 100 | – | – |
| CCCCCCCCCC(=O)NC(Cc1ccc(O)cc1)C(=O)NCCCNCCCCNCCCNC(=O)[C@@H](N)CCCN=C(N)N (some centres not stated) | – | – | – | > 100 | > 100 | – | – | – |
